Measured values: paper PMC2915626, “Isolation and Characterization of a Defensin-Like Peptide (Coprisin) from the Dung Beetle, Copris tripartitus” (International Journal of Peptides, 2009)
Ends that are not written are not given here.

Key:
S. aureus = assay: Broth microdilution assay (MIC); type: cell-based, Staphylococcus aureus
Experimental: (§1) In addition to a radial diffusion assay, antibacterial activities of the peptides were also tested by a broth microdilution assay against E. coli and S. aureus. Briefly, bacteria were grown overnight in TSB to the onset of stationary phase at 37°C with shaking at 200 rpm. The cultures were diluted in a fresh TSB to the final concentration of 2 × 10^4 CFU/mL. A stock solution of each peptide was prepared in 0.01% acetic acid at 640 μg/mL. The peptide solution was then serially diluted in 0.01% acetic acid to 2 μg/mL. After 90 μL aliquots of the bacterial suspension were dispensed into each well of a 96-well polypropylene microtiter plate, 10 μL of peptide solution was added. The antibacterial activities of peptides were assessed by measuring visible turbidity in each well of the plate after 18 hours of incubation at 37°C. MIC was expressed as intervals (a to b), where a was the highest concentration tested at which bacteria were still growing and b was the lowest concentration that caused complete growth inhibition.

E. coli = assay: Broth microdilution assay (MIC); type: cell-based, Escherichia coli
Experimental: as §1

[1] = broth microdilution in TSB, 2 × 10^4 CFU/mL, 18 hours at 37°C, visible turbidity, MIC as interval a to b (a highest conc. with growth, b lowest conc. with complete inhibition)

Substance: LHLIALRKK-NH2 [CopA1]
- MIC (μg/mL) S. aureus (S. aureus; 18 h): >64 µg/mL
- MIC (μg/mL) E. coli (E. coli; 18 h): >64 µg/mL

Substance: LHCIALRKK-NH2 [CopN5(22–30)]
- MIC (μg/mL) S. aureus (S. aureus; [1]): >64 µg/mL
- MIC (μg/mL) E. coli (E. coli; [1]): 8 to 16 µg/mL

Substance: LHRIALRKK-NH2 [CopA2]
- MIC (μg/mL) S. aureus (S. aureus; 18 h): >64 µg/mL
- MIC (μg/mL) E. coli (E. coli; 18 h): >64 µg/mL

Substance: LLCIALRKK-NH2 [CopA3]
- MIC (μg/mL) S. aureus (S. aureus; 18 h): 4 to 8 µg/mL
- antibacterial activity against Staphylococcus aureus (in words) (S. aureus; statement of the abstract): potent antibacterial activities
- MIC (μg/mL) E. coli (E. coli; 18 h): 4 to 8 µg/mL
- antibacterial activity against Escherichia coli (in words) (E. coli; statement of the abstract): potent antibacterial activities

Substance: LRCIALRKK-NH2 [CopA4]
- MIC (μg/mL) S. aureus (S. aureus; 18 h): >64 µg/mL
- MIC (μg/mL) E. coli (E. coli; 18 h): 16 to 32 µg/mL
